The text below walks through data of patent US20120041025A1, “Dihydrolipoic Acid Derivatives Comprising Nitric Oxide and Therapeutic Uses Thereof” (priority 2009, published 2012).

The test system of data set [1] is low-density lipoprotein (LDL). The data set is described as follows: Inhibition of low-density lipoprotein oxidation, spectral analysis at O.D. 234. Format: biochemical. As to conditions: 10, 25, and 50 μM NO-DHLA in ethyl alcohol. The protocol:
To determine whether the dinitroso-derivative of dihydrolipoic acid (6,8-bis[(oxidoazanylidyne)-λ^4-sulfanyl]octanoic acid or “NO-DHLA”) was capable of inhibiting low-density lipoprotein (LDL) oxidation, LDLs were incubated in ethyl alcohol alone or with NO-DHLA. A spectral analysis of these solutions was then performed at an O.D. of 234, as absorbance at that portion of the spectrum is indicative of the formation of the oxidized fatty acid component of LDL.

In data set [2] the test system is bovine serum albumin (BSA). In words: Nitration of bovine serum albumin by NO-DHLA, western blot with anti-nitrotyrosine antibodies (NO donation). Format: biochemical. Conditions: BSA 25 mg/ml incubated with NO-DHLA (6 to 15 μl) for 1 hr; untreated albumin had no detectable nitrotyrosine. The protocol: To determine the ability of the dinitroso-derivative of DHLA (6,8-bis[(oxidoazanylidyne)-λ^4-sulfanyl]octanoic acid or “NO-DHLA”) to donate nitric oxide (NO), bovine serum albumin (BSA) was first prepared in water at 25 mg/ml. In 100 μl of alcohol, increasing concentrations of BSA (15 to 30 μl) were then mixed with increasing concentrations of the NO-DHLA (0 to 15 μl) and incubated for 1 hr. Table 1 represents the incubation:
At the end of the incubation, samples were the separated by SDS-PAGE electrophoresis with along with markers of molecular weight. At the end of the electrophoresis, the blot was subsequently transferred on to a nitrocellulose membrane and western blotting was performed using anti-nitrotyrosine antibodies at a 1:1000 dilution (Oxford Biomedical Research, Rochester Hills, Mich.). Non-specific sites on the nitrocellulose were blocked with milk protein for 16 h at 4° C. and then overlaid with a polyclonal anti-nitrotyrosine rabbit antibody. Peroxidase conjugated anti-rabbit IgG was used as secondary antibody. […]

Data set [3] can be described thus: Storage stability of DHLA-NO solution (color / absorbance at OD 545 nm). It counts as physicochemical. The protocol:
Furthermore, it was also observed that other reduced thiols (cysteine, glutathione), which were used as controls, generated similar S-nitroso thiol compounds. NO generated from the decomposition of other NO donors also generated nitroso-DHLA when incubated with DHLA. […] However, DHLA-NO stored at −80° C. retained its color up for up to 3 months without any loss of absorbance at OD 545 nm.

The structures appear in SMILES notation.

Regarding `O=NSCCC(CCCCC(=O)O)SN=O` (centres unmarked) [NO-DHLA, 6,8-bis[(oxidoazanylidyne)-λ^4-sulfanyl]octanoic acid], the “oxidation of LDL (O.D. at 234 over time)” value in data set [1] was “effectively prevented or significantly reduced the oxidation of LDL”. The “nitrotyrosine formation on BSA (reactivity with anti-nitrotyrosine antibody)” value in data set [2] is “intense reactivity with the antibody”. For the same compound, the “stability of solution stored at room temperature” value in data set [3] (solution stored at room temperature, color) is “decomposed, losing color within hours”. Besides, in data set [3] (stored at −20° C.), the “stability without any loss of absorbance at OD 545 nm” value is “stable at −20 °C for at least one month”. Besides, in data set [3] (stored at −80° C.), the “time color retained without any loss of absorbance at OD 545 nm” value is “up to 3 months”.
